Experimental data published in US4055715A, “Method of producing 1-N-[L-(-)-α-hydroxy-γ-aminobutyryl]XK-62-2” (Abbott Laboratories, priority 1974, dated 1977).
Converted amounts (≈) assume the structure as drawn.

Tests used:
[1] = tested on: Pseudomonas aeruginosa BMH 1; assay: Agar-dilution MIC, pH 8.0 (Table 1); format: cell-based; details: BMH1, P. aeruginosa BMH 1, agar-dilution, pH 8.0, read-out: Minimum Inhibitory Concentration
[2] = tested on: Staphylococcus aureus ATCC 6538P; assay: Agar-dilution MIC, pH 8.0 (Table 1); format: cell-based; details: ATCC6538P, S. aureus ATCC 6538P, agar-dilution, pH 8.0, read-out: Minimum Inhibitory Concentration
[3] = tested on: Bacillus subtilis No. 10707; assay: Agar-dilution MIC, pH 8.0 (Table 1); format: cell-based; details: B. subtilis No. 10707, agar-dilution, pH 8.0, read-out: Minimum Inhibitory Concentration
[4] = tested on: Proteus vulgaris ATCC 6897; assay: microbe, parasite or virus in culture; format: cell-based; details: ATCC6897, P. vulgaris ATCC 6897, agar-dilution, pH 8.0, read-out: Minimum Inhibitory Concentration
[5] = tested on: Shigella sonnei ATCC 9290; assay: microbe, parasite or virus in culture; format: cell-based; details: ATCC9290, S. sonnei ATCC 9290, agar-dilution, pH 8.0, read-out: Minimum Inhibitory Concentration
[6] = tested on: Salmonella typhosa ATCC 9992; assay: Agar-dilution MIC, pH 8.0 (Table 1); format: cell-based; details: Salmonella enterica, pH 8, read-out: Minimum Inhibitory Concentration
[7] = tested on: Krebsiella pneumoniae ATCC 10031; assay: Agar-dilution MIC, pH 8.0 (Table 1); format: cell-based; details: Klebsiella pneumoniae, ATCC10031; K. pneumoniae ATCC 10031; agar-dilution, pH 8.0; read-out: Minimum Inhibitory Concentration
Escherichia coli ATCC 26 = assay: Agar-dilution MIC, pH 8.0 (Table 1); format: cell-based; details: ATCC26, E. coli ATCC 26, agar-dilution, pH 8.0, read-out: Minimum Inhibitory Concentration
Escherichia coli KY 8327 [8] = assay: Agar-dilution MIC, pH 8.0 (Table 1); format: cell-based; details: Escherichia coli, KY8327; E. coli KY 8327, produces gentamicin adenyltransferase; agar-dilution, pH 8.0; read-out: Minimum Inhibitory Concentration
Description: (§1) The former bacterium inactivates kanamycins and gentamicins by adenylation, and the latter inactivates gentamicins by acetylation.

Escherichia coli KY 8348 [9] = assay: Agar-dilution MIC, pH 8.0 (Table 1); format: cell-based; details: Escherichia coli, KY8348; E. coli KY 8348, produces gentamicin acetyltransferase Type I; agar-dilution, pH 8.0; read-out: Minimum Inhibitory Concentration
Description: as §1

[10] = tested on: Staphylococcus aureus 209 P; assay: Agar dilution MIC, pH 7.2 (Table 2); format: cell-based; details: S. aureus 209 P, agar dilution, pH 7.2, read-out: Minimum Inhibitory Concentration
[11] = tested on: Staphylococcus aureus Smith; assay: Agar dilution MIC, pH 7.2 (Table 2); format: cell-based; details: S. aureus Smith, agar dilution, pH 7.2, read-out: Minimum Inhibitory Concentration
[12] = tested on: Bacillus subtilis ATCC 6633; assay: Agar dilution MIC, pH 7.2 (Table 2); format: cell-based; details: ATCC6633, B. subtilis ATCC 6633, agar dilution, pH 7.2, read-out: Minimum Inhibitory Concentration
Sarcina lutea ATCC 9341 = assay: Agar dilution MIC, pH 7.2 (Table 2); format: cell-based; details: Micrococcus luteus, ATCC9341; Sarcina lutea ATCC 9341; agar dilution, pH 7.2; read-out: Minimum Inhibitory Concentration
Escherichia coli T-2 = assay: Agar dilution MIC, pH 7.2 (Table 2); format: cell-based; details: T2, E. coli T-2, agar dilution, pH 7.2, read-out: Minimum Inhibitory Concentration
Escherichia coli T-5 = assay: Agar dilution MIC, pH 7.2 (Table 2); format: cell-based; details: T5, E. coli T-5, agar dilution, pH 7.2, read-out: Minimum Inhibitory Concentration
Escherichia coli KY 8327 [13] = assay: Agar dilution MIC, pH 7.2 (Table 2); format: cell-based; details: KY8327, E. coli KY 8327, read-out: Minimum Inhibitory Concentration
Escherichia coli KY 8321 = assay: Agar dilution MIC, pH 7.2 (Table 2); format: cell-based; details: KY8321, E. coli KY 8321, produces gentamicin adenyltransferase and neomycin-kanamycin phosphotransferase Type II, agar dilution, pH 7.2, read-out: Minimum Inhibitory Concentration
Escherichia coli KY 8348 [14] = assay: Agar dilution MIC, pH 7.2 (Table 2); format: cell-based; details: KY8348, E. coli KY 8348, produces gentamicin acetyltransferase Type I, read-out: Minimum Inhibitory Concentration
Escherichia coli KY 8349 = assay: Agar dilution MIC, pH 7.2 (Table 2); format: cell-based; details: KY8349, E. coli KY 8349, produces neomycin-kanamycin phosphotransferase Type I, read-out: Minimum Inhibitory Concentration
[15] = tested on: Pseudomonas aeruginosa BMH 1; assay: Agar dilution MIC, pH 7.2 (Table 2); format: cell-based; details: BMH1, P. aeruginosa BMH 1, agar dilution, pH 7.2, read-out: Minimum Inhibitory Concentration
[16] = tested on: Pseudomonas aeruginosa KY 8510; assay: Agar dilution MIC, pH 7.2 (Table 2); format: cell-based; details: KY8510, P. aeruginosa KY 8510, produces kanamycin acetyltransferase, agar dilution, pH 7.2, read-out: Minimum Inhibitory Concentration
[17] = tested on: Pseudomonas aeruginosa KY 8511; assay: Agar dilution MIC, pH 7.2 (Table 2); format: cell-based; details: KY8511, P. aeruginosa KY 8511, produces gentamicin acetyltransferase Type I and neomycin-kanamycin phosphotransferase Type I, agar dilution, pH 7.2, read-out: Minimum Inhibitory Concentration
[18] = tested on: Pseudomonas aeruginosa KY 8512; assay: Agar dilution MIC, pH 7.2 (Table 2); format: cell-based; details: KY8512, P. aeruginosa KY 8512, produces neomycin-kanamycin phosphotransferase Type I and II and streptomycin phosphotransferase, agar dilution, pH 7.2, read-out: Minimum Inhibitory Concentration
[19] = tested on: Pseudomonas aeruginosa KY 8516; assay: Agar dilution MIC, pH 7.2 (Table 2); format: cell-based; details: KY8516, P. aeruginosa KY 8516, probably produces kanamycin acetyltransferase, agar dilution, pH 7.2, read-out: Minimum Inhibitory Concentration
Providencia sp. 164 = assay: Agar dilution MIC, pH 7.2 (Table 2); format: cell-based; details: Providencia sp. 164, produces gentamicin acetyltransferase Type II, read-out: Minimum Inhibitory Concentration
[20] = tested on: Klebsiella pneumoniae No. 8045; assay: Agar dilution MIC, pH 7.2 (Table 2); format: cell-based; details: K. pneumoniae No. 8045, agar dilution, pH 7.2, read-out: Minimum Inhibitory Concentration
Proteus mirabilis 1287 = assay: Agar dilution MIC, pH 7.2 (Table 2); format: cell-based; details: Proteus mirabilis; P. mirabilis 1287; agar dilution, pH 7.2; read-out: Minimum Inhibitory Concentration
Proteus vulgaris 6897 = assay: Agar dilution MIC, pH 7.2 (Table 2); format: cell-based; details: Proteus vulgaris; P. vulgaris 6897; agar dilution, pH 7.2; read-out: Minimum Inhibitory Concentration
Proteus rettgeri KY 4288 = assay: Agar dilution MIC, pH 7.2 (Table 2); format: cell-based; details: Providencia rettgeri, KY4288, P. rettgeri KY 4288, read-out: Minimum Inhibitory Concentration
Proteus morganii KY 4298 = assay: Agar dilution MIC, pH 7.2 (Table 2); format: cell-based; details: Morganella morganii, KY4298; P. morganii KY 4298; agar dilution, pH 7.2; read-out: Minimum Inhibitory Concentration
[21] = Acute toxicity in mice, intravenous injection; details: mouse, in vivo

What does the source list for `CNC[C@@H]1CC[C@@H](N)[C@@H](O[C@H]2[C@H](O)[C@@H](O[C@H]3OC[C@](C)(O)[C@H](NC)[C@H]3O)[C@H](N)C[C@@H]2N)O1` [XK-62-2]?
MIC [1]: 0.52 µg/mL (≈ 1.12 µM); MIC [2]: 0.088 µg/mL (≈ 0.19 µM); MIC [3]: 0.044 µg/mL (≈ 0.0949 µM); MIC [4]: 0.033 µg/mL (≈ 0.0712 µM); MIC [5]: 0.033 µg/mL (≈ 0.0712 µM); MIC [6]: 0.008 µg/mL (≈ 0.0173 µM); MIC [7]: 0.004 µg/mL (≈ 0.00863 µM); MIC (Escherichia coli ATCC 26): 0.016 µg/mL (≈ 0.0345 µM); MIC (Escherichia coli KY 8327 [8]): 1.04 µg/mL (≈ 2.24 µM); MIC (Escherichia coli KY 8348 [9]): 1.04 µg/mL (≈ 2.24 µM); MIC [10]: 0.1 µg/mL (≈ 0.216 µM); MIC [11]: < 0.05 µg/mL; MIC [12]: < 0.05 µg/mL; MIC (Sarcina lutea ATCC 9341): 0.4 µg/mL (≈ 0.863 µM); MIC (Escherichia coli T-2): 0.4 µg/mL (≈ 0.863 µM); MIC (Escherichia coli T-5): 0.4 µg/mL (≈ 0.863 µM); MIC (Escherichia coli KY 8327 [13]): 12.5 µg/mL (≈ 27 µM); MIC (Escherichia coli KY 8321): 3.12 µg/mL (≈ 6.73 µM); MIC (Escherichia coli KY 8348 [14]): 12.5 µg/mL (≈ 27 µM); MIC (Escherichia coli KY 8349): 0.4 µg/mL (≈ 0.863 µM); MIC [15]: 0.78 µg/mL (≈ 1.68 µM); MIC [16]: 1.56 µg/mL (≈ 3.37 µM); MIC [17]: 100 µg/mL (≈ 216 µM); MIC [18]: 0.78 µg/mL (≈ 1.68 µM); MIC [19]: 3.12 µg/mL (≈ 6.73 µM); MIC (Providencia sp. 164): 100 µg/mL (≈ 216 µM); MIC [20]: 0.1 µg/mL (≈ 0.216 µM); MIC (Proteus mirabilis 1287): 0.78 µg/mL (≈ 1.68 µM); MIC (Proteus vulgaris 6897): 0.78 µg/mL (≈ 1.68 µM); MIC (Proteus rettgeri KY 4288): 0.4 µg/mL (≈ 0.863 µM); MIC (Proteus morganii KY 4298): 0.4 µg/mL (≈ 0.863 µM); LD50 [21]: 93 mg/kg
